Patent US7148245B2, “Biphenyl derivatives substituted with an aromatic or heteroaromatic radical, and pharmaceutical and cosmetic compositions containing them” (Galderma Research & Development, priority 1997, dated 2006)

Row | Structure (SMILES) | melting point [°C]
1 | CC1(C)CCC(C)(C)c2cc(-c3cc(-c4ccc(C(=O)O)cc4)ccc3OCCCCCCCCO)ccc21 [Example 5, 4-[4-(8-Hydroxyoctyloxy)-3-(5,6,7,8-tetrahydro-5,5,8,8-tetramethyl-2-naphthyl)phenyl]benzoic acid] | 155 to 160
2 | COCOc1cc(C(=O)O)ccc1-c1ccc(-c2ccccc2)c(-c2ccc3c(c2)C(C)(C)CCC3(C)C)c1 [Example 43, 2″-Methoxymethoxy-2′-(5,5,8,8-tetramethyl-5,6,7,8-tetrahydro-2-naphthyl)-[1,1′;4′,1″]terphenyl-4″-carboxylic acid] | 204 to 206
3 | CC1(C)CCC(C)(C)c2cc(C3C=C(c4ccccc4)C=CC3(OCC(=O)O)C(=O)O)ccc21 (stereo not shown) [Example 54, 4′-Carboxymethoxy-3′-(5,5,8,8-tetramethyl-5,6,7,8-tetrahydro-2-naphthyl)biphenyl-4′-carboxylic acid] | 279 to 281
4 | COCOc1c(-c2ccc(C(=O)O)cc2)cccc1-c1ccc2c(c1)C(C)(C)CCC2(C)C | 176
5 | CC1(C)CCC(C)(C)c2cc(-c3cc(-c4ccc(C(=O)O)cc4)ccc3OCCCCCCCO)ccc21 [Example 4, 4-[4-(7-Hydroxyheptyloxy)-3-(5,6,7,8-tetrahydro-5,5,8,8-tetramethyl-2-naphthyl)phenyl]benzoic acid] | 168 to 172
6 | CC1(C)CCC(C)(C)c2cc(-c3cc(-c4ccc(C(=O)O)nc4)ccc3-c3ccccc3)ccc21 [Example 48, 5-[2-(5,5,8,8-Tetramethyl-5,6,7,8-tetrahydro-2-naphthyl)biphenyl-4-yl]-2-pyridinecarboxylic acid] | 222 to 224
7 | CC1(C)CCC(C)(C)c2cc(-c3ccc(-c4ccccc4)c(-c4ccc(C(=O)O)cc4)c3)ccc21 [Example 28, 4′-(5,5,8,8-Tetramethyl-5,6,7,8-tetrahydro-2-naphthyl)-[1,1′;2′,1″]terphenyl-4″-carboxylic acid] | 258 to 262
8 | CC1(C)CCC(C)(C)c2cc(-c3cc(-c4ccc(C(=O)O)cc4)ccc3-c3ccccc3)ccc21 [Example 14, 2′-(5,5,8,8-Tetramethyl-5,6,7,8-tetrahydro-2-naphthyl)-[1,1′;4′,1″]terphenyl-4″-carboxylic acid] | 287 to 288
9 | COCOc1ccc(-c2ccc3c(c2)C(C)(C)CCC3(C)C)cc1-c1ccc(C(=O)O)cc1 | 183 to 185
10 | CC1(C)CCC(C)(C)c2cc(-c3cc(-c4ccc(C(=O)O)cc4)ccc3OCCN3CCOCC3)ccc21 [Example 12, 4′-(2-Morpholin-4-ylethoxy)-3′-(5,5,8,8-tetramethyl-5,6,7,8-tetrahydro-2-naphthyl)biphenyl-4-carboxylic acid] | 270 to 272
11 | CC1(C)CCC(C)(C)c2cc(-c3cc(-c4ccc(C(=O)O)cc4)ccc3OCCCCCC(=O)O)ccc21 [Example 56, 4′-(5-Carboxypentyloxy)-3′-(5,5,8,8-tetramethyl-5,6,7,8-tetrahydro-2-naphthyl)biphenyl-4-carboxylic acid] | 245
12 | CC1(C)CCC(C)(C)c2cc(-c3cc(-c4ccc(C(=O)O)c(O)c4)ccc3-c3ccccc3)ccc21 [Example 46, 3″-Hydroxy-2′-(5,5,8,8-tetramethyl-5,6,7,8-tetrahydro-2-naphthyl)-[1,1′;4′,1″]terphenyl-4″-carboxylic acid] | 266 to 268
13 | CC1(C)CCC(C)(C)c2cc(-c3cc(-c4ccc(C(=O)O)cc4)ccc3OCCCCCCCCCO)ccc21 [Example 6, 4-[4-(9-Hydroxynonyloxy)-3-(5,6,7,8-tetrahydro-5,5,8,8-tetramethyl-2-naphthyl)phenyl]benzoic acid] | 147 to 150
14 | Cc1cc2c(cc1-c1cc(-c3ccc(C(=O)O)cc3)ccc1-c1ccccc1)C(C)(C)CCC2(C)C [Example 36, 2′-(3,5,5,8,8-Pentamethyl-5,6,7,8-tetrahydro-2-naphthyl)-[1,1′;4′,1″]terphenyl-4″-carboxylic acid] | 217
15 | CC1(C)CCC(C)(C)c2cc(-c3cc(-c4ccc(C(=O)O)cc4O)ccc3-c3ccccc3)ccc21 [Example 42, 2″-Hydroxy-2′-(5,5,8,8-tetramethyl-5,6,7,8-tetrahydro-2-naphthyl)-[1,1′;4′,1″]terphenyl-4″-carboxylic acid] | 282 to 284
16 | CCCOc1cc2c(cc1-c1cc(-c3ccc(C(=O)O)cc3)ccc1-c1ccccc1)C(C)(C)CCC2(C)C [Example 40, 2′-(3-Propyloxy-5,5,8,8-tetramethyl-5,6,7,8-tetrahydro-2-naphthyl)-[1,1′;4′,1″]terphenyl-4″-carboxylic acid] | 234
17 | CC1(C)CCC(C)(C)c2cc(-c3cc(-c4ccc(C(=O)O)cc4)ccc3OCC(O)CO)ccc21 (racemic) [Example 10, 4′-(2,3-Dihydroxypropoxy)-3′-(5,5,8,8-tetramethyl-5,6,7,8-tetrahydro-2-naphthyl)biphenyl-4-carboxylic acid] | 258

Further lines, results first:

Row | melting point [°C] | Structure (SMILES)
18 | 241 to 244 | CC1(C)CCC(C)(C)c2cc(-c3cc(-c4ccc(C(=O)O)cc4)ccc3OCc3ccccc3)ccc21 [Example 9, 4-[4-Benzyloxy-3-(5,6,7,8-tetrahydro-5,5,8,8-tetramethyl-2-naphthyl)phenyl]benzoic acid]
19 | 213 | CC1(C)CCC(C)(C)c2cc(-c3cc(CO)cc(-c4ccc(C(=O)O)cc4)c3)ccc21
20 | 200 to 201 | CC1(C)CCC(C)(C)c2cc(-c3cc(-c4ccc(C(=O)O)cc4)ccc3OCCCCCCO)ccc21 [Example 3, 4-[4-(6-Hydroxyhexyloxy)-3-(5,6,7,8-tetrahydro-5,5,8,8-tetramethyl-2-naphthyl)phenyl]benzoic acid]
21 | 218 to 221 | COCOc1ccccc1-c1ccc(-c2ccc(C(=O)O)cc2)cc1-c1ccc2c(c1)C(C)(C)CCC2(C)C [Example 21, 2-Methoxymethoxy-2′-(5,5,8,8-tetramethyl-5,6,7,8-tetrahydro-2-naphthyl)-[1,1′;4′,1″]terphenyl-4″-carboxylic acid]
22 | 343 | CC1(C)CCC(C)(C)c2cc(-c3cc(-c4ccc(C(=O)O)cc4)ccc3C(=O)O)ccc21
23 | 165 | COCOCc1cc(-c2ccc(C(=O)O)cc2)cc(-c2ccc3c(c2)C(C)(C)CCC3(C)C)c1
24 | 265 to 269 | CC1(C)CCC(C)(C)c2cc(-c3cc(-c4ccc(C(=O)O)cc4)ccc3-c3ccccc3O)ccc21 [Example 22, 2-hydroxy-2′-(5,5,8,8-tetramethyl-5,6,7,8-tetrahydro-2-naphthyl)-[1,1′;4′,1″]terphenyl-4″-carboxylic acid]
25 | 261 | CC1(C)CCSc2cc(-c3cc(-c4ccc(C(=O)O)cc4)ccc3-c3ccccc3)ccc21
26 | 239 to 243 | COc1ccccc1-c1ccc(-c2ccc(C(=O)O)cc2)cc1-c1ccc2c(c1)C(C)(C)CCC2(C)C [Example 23, 2-Methoxy-2′-(5,5,8,8-tetramethyl-5,6,7,8-tetrahydro-2-naphthyl)-[1,1′;4′,1″]terphenyl-4″-carboxylic acid]
27 | 273 | CC1(C)CCC(C)(C)c2cc(-c3cc(-c4ccc(C(=O)O)cc4)ccc3-c3ccccc3)c(O)cc21
28 | 205 | COc1c(-c2ccc(C(=O)O)cc2)cccc1-c1ccc2c(c1)C(C)(C)CCC2(C)C
29 | 177 | CCOC(=O)CCCCCOc1ccc(-c2ccc(C(=O)O)cc2)cc1-c1ccc2c(c1)C(C)(C)CCC2(C)C [Example 55, 4′-(5-Ethoxycarbonylpentyloxy)-3′-(5,5,8,8-tetramethyl-5,6,7,8-tetrahydro-2-naphthyl)biphenyl-4-carboxylic acid]
30 | 212 | COCOc1cccc(-c2ccc(-c3ccc(C(=O)O)cc3)cc2-c2ccc3c(c2)C(C)(C)CCC3(C)C)c1 [Example 18, 3-Methoxymethoxy-2′-(5,5,8,8-tetramethyl-5,6,7,8-tetrahydro-2-naphthyl)-[1,1′;4′,1″]terphenyl-4″-carboxylic acid]
31 | 258 to 259 | COc1cccc(-c2ccc(-c3ccc(C(=O)O)cc3)cc2-c2ccc3c(c2)C(C)(C)CCC3(C)C)c1 [Example 20, 3-Methoxy-2′-(5,5,8,8-tetramethyl-5,6,7,8-tetrahydro-2-naphthyl)-[1,1′;4′,1″]terphenyl-4″-carboxylic acid]
